Values quoted from earlier work, collected in patent US20090054377A1, “COMPOSITIONS AND METHODS FOR SMOKING CESSATION” (MODUS BIOLOGICAL MEMBRANES LTD., priority 2004, published 2009).
Read-outs that look alike come from different tables or passages of the source.

Legend:
smokers [1] = conditions: in vivo
smokers [2] = test system: smokers
[3] = other smoking cessation remedies

For CC(NC(C)(C)C)C(=O)c1cccc(Cl)c1 (stereo not shown) [Bupropion (Zyban), Bupropion], the “Adverse Events: Anxiety” value (smokers [1]) is given as 8%, the “Adverse Events: Constipation” value (smokers [1]) is given as 8% and the “Adverse Events: Diarrhea” value (smokers [1]) is given as 4%. The “Adverse Events: Dizziness” value (smokers [1]) was 8-10%, the “Adverse Events: Dream abnormality” value (smokers [1]) was 5% and the “Adverse Events: Dry Mouth” value (smokers [1]) was 1-11%. For the same compound, the “Adverse Events: Insomnia” value (smokers [1]) was 31-40%, the “Adverse Events: Rhinitis” value (smokers [1]) was 12% and the “Adverse Events: Seizures” value (smokers [1]) was 0.4%. The “% Quitters” value (smokers [2]; 300 mg/day) was 25%, the “Absolute quit rate (quit rate − quit rate of placebo)” value (smokers [2]; 300 mg/day) was 11 and the “% Quitters” value (smokers [2]; [3]) was 22.5%. The “Absolute quit rate (quit rate − quit rate of placebo)” value (smokers [2]; [3]) was 13.5.
